According to patent US11739101B2, “Bifunctional degraders of hematopoietic progenitor kinase and therapeutic uses thereof” (Nurix Therapeutics, Inc., priority 2020, dated 2023):

biological target: T1, HPK1 (Homo sapiens, UniProt Q92918); assay: HPK1 Cellular HiBiT Degradation Assay; format: cell-based; conditions: HiBiT-tagged HPK1 Jurkat cells, 24 hours, 10 uM to 0.1 nM; Dmax = 100 minus lowest % HPK1 remaining vs DMSO vehicle
T1 construct: A HiBiT tag was introduced by CRISPR on the N terminus of HPK1 in Jurkat cells; host or cells: Jurkat (ATCC TIB-152), monoclonal CRISPR HiBiT knock-in line
T1 sequence (Q92918 whole entry): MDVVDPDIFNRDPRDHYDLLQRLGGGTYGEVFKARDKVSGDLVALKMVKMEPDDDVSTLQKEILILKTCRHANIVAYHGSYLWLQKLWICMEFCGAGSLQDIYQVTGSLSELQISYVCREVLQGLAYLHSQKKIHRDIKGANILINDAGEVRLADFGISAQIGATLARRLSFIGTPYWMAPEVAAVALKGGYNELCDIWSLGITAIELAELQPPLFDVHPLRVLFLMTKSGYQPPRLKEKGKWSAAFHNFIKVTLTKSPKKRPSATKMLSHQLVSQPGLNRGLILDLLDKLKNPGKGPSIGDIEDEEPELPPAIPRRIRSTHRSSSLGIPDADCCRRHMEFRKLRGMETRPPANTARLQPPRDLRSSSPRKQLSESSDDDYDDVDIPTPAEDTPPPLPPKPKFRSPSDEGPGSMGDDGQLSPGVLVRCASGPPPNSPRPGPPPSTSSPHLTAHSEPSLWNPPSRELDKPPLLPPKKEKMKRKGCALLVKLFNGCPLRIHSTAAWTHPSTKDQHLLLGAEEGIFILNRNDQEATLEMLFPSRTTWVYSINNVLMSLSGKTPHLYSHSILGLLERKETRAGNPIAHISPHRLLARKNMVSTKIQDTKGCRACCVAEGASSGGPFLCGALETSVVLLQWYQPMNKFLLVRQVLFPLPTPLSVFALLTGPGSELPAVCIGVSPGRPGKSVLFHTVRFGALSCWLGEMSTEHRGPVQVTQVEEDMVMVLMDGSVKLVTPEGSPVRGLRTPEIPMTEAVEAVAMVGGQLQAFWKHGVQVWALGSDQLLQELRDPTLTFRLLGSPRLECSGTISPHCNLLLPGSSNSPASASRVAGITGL
Procedure, shortened: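 Dmax is derived from four-parameter curves of % HPK1 remaining, as 100 minus the lowest value, normalized to DMSO-treated cells with parental Jurkat background subtracted. HiBiT-HPK1 knock-in Jurkat cells got compound for 24 hours (final 10 uM to 0.1 nM, 11 points) before lytic HiBiT luminescence. Cytotoxicity was checked on parallel CellTiter-Glo plates.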

| Structure (SMILES) | Dmax |
| --- | --- |
| Cc1cc(F)c(Nc2nc(-c3ccc4c(c3)N([C@H]3C[C@@H](N5CCCCC5)C3)C(=O)C43CCN(C(=O)c4ccc(C(=O)N5CCN(c6ccc7c(c6)C(=O)N(C6CCC(=O)NC6=O)C7=O)CC5)cc4)CC3)cc3ncn(C(C)C)c23)cc1C(=O)NC(C)C (stereo partly drawn) [Example 78, 5-((6-(1′-(4-(4-(2-(2,6-dioxopiperidin-3-yl)-1,3-dioxoisoindolin-5-yl)piperazine-1-carbonyl)benzoyl)-2-oxo-1-((1s,3s)-3-(piperidin-1-yl)cyclobutyl)spiro[indoline-3,4′-piperidin]-6-yl)-3-isopropyl-3H-imidazo[4,5-c]pyridin-4-yl)amino)-4-fluoro-N-isopropyl-2-methylbenzamide] | 45 to 65% |
| Cc1cc(F)c(Nc2nc(-c3ccc4c(c3)N([C@H]3C[C@@H](N5CCCCC5)C3)C(=O)C43CCN(C(=O)CCOCCNc4cccc5c4C(=O)N(C4CCC(=O)NC4=O)C5=O)CC3)cc3ncn(C(C)C)c23)cc1C(=O)NC(C)C (stereo partly drawn) [Example 11, 5-((6-(1′-(3-(2-((2-(2,6-dioxopiperidin-3-yl)-1,3-dioxoisoindolin-4-yl)amino)ethoxy)propanoyl)-2-oxo-1-((1s,3s)-3-(piperidin-1-yl)cyclobutyl)spiro[indoline-3,4′-piperidin]-6-yl)-3-isopropyl-3H-imidazo[4,5-c]pyridin-4-yl)amino)-4-fluoro-N-isopropyl-2-methylbenzamide] | < 45% |
| Cc1cc(F)c(Nc2nc(-c3ccc4c(c3)N(C3CC(N5CCCCC5)C3)C(=O)C43CCN(C(=O)CCOCCOCCOCCNc4ccc5c(c4)C(=O)N(C4CCC(=O)NC4=O)C5=O)CC3)cc3ncn(C(C)C)c23)cc1C(=O)NC(C)C (stereo not drawn) [Example 5, 5-((6-(1′-(3-(2-(2-(2-((2-(2,6-dioxopiperidin-3-yl)-1,3-dioxoisoindolin-5-yl)amino)ethoxy)ethoxy)ethoxy)propanoyl)-2-oxo-1-((1s,3s)-3-(piperidin-1-yl)cyclobutyl)spiro[indoline-3,4′-piperidin]-6-yl)-3-isopropyl-3H-imidazo[4,5-c]pyridin-4-yl)amino)-4-fluoro-N-isopropyl-2-methylbenzamide] | < 45% |
| Cc1cc(F)c(Nc2nc(-c3ccc4c(c3)N([C@H]3C[C@@H](N5CCCCC5)C3)C(=O)C43CCN(C(=O)C4CCN(C(=O)CN5CC6(CCN(c7ccc8c(c7)C(=O)N(C7CCC(=O)NC7=O)C8=O)CC6)C5)CC4)CC3)cc3ncn(C(C)C)c23)cc1C(=O)NC(C)C (stereo partly drawn) [Example 42, 5-{[6-(1′-{1-[2-(7-{2-[2,6-dioxopiperidin-3-yl]-1,3-dioxo-2,3-dihydro-1H-isoindol-5-yl}-2,7-diazaspiro[3.5]nonan-2-yl)acetyl]piperidine-4-carbonyl}-2-oxo-1-[(1s,3s)-3-(piperidin-1-yl)cyclobutyl]-1,2-dihydrospiro[indole-3,4′-piperidin]-6-yl)-3-(propan-2-yl)-3H-imidazo[4,5-c]pyridin-4-yl]amino}-4-fluoro-2-methyl-N-(propan-2-yl)benzamide] | 45 to 65% |
| Cc1cc(F)c(Nc2nc(-c3ccc4c(c3)N([C@H]3C[C@@H](N5CCCCC5)C3)C(=O)C43CCN(C(=O)CCCCCCCNc4ccc5c(c4)C(=O)N(C4CCC(=O)NC4=O)C5=O)CC3)cc3ncn(C(C)C)c23)cc1C(=O)NC(C)C (stereo partly drawn) [Example 3, 5-((6-(1′-(8-((2-(2,6-dioxopiperidin-3-yl)-1,3-dioxoisoindolin-5-yl)amino)octanoyl)-2-oxo-1-((1s,3s)-3-(piperidin-1-yl)cyclobutyl)spiro[indoline-3,4′-piperidin]-6-yl)-3-isopropyl-3H-imidazo[4,5-c]pyridin-4-yl)amino)-4-fluoro-N-isopropyl-2-methylbenzamide] | < 45% |
| Cc1cc(F)c(Nc2nc(-c3ccc4c(c3)N([C@H]3C[C@@H](N5CCCCC5)C3)C(=O)C43CCN(C(=O)c4ccc(CN5CCN(c6ccc7c(c6)C(=O)N(C6CCC(=O)NC6=O)C7=O)CC5)cc4)CC3)cc3ncn(C(C)C)c23)cc1C(=O)NC(C)C (stereo partly drawn) [Example 91, 5-[(6-{1′-[4-({4-[2-(2,6-dioxopiperidin-3-yl)-1,3-dioxoisoindol-5-yl]piperazin-1-yl}methyl)benzoyl]-2-oxo-1-[(1s,3s)-3-(piperidin-1-yl)cyclobutyl]spiro[indole-3,4′-piperidin]-6-yl}-3-isopropylimidazo[4,5-c]pyridin-4-yl)amino]-4-fluoro-N-isopropyl-2-methylbenzamide] | 45 to 65% |
| Cc1cc(F)c(Nc2nc(-c3ccc4c(c3)N([C@H]3C[C@@H](N5CCCCC5)C3)C(=O)C43CCN(C(=O)C[C@H]4CCN(C(=O)[C@H]5CC[C@H](Nc6cccc7c6C(=O)N(C6CCC(=O)NC6=O)C7=O)CC5)C4)CC3)cc3ncn(C(C)C)c23)cc1C(=O)NC(C)C (stereo partly drawn) [Example 57, 4-fluoro-2-methyl-5-{[6-(2-oxo-1′-{2-[(3R)-1-[(1R,4R)-4-({2-[2,6-dioxopiperidin-3-yl]-1,3-dioxo-2,3-dihydro-1H-isoindol-4-yl}amino)cyclohexanecarbonyl]pyrrolidin-3-yl]acetyl}-1-[(1s,3s)-3-(piperidin-1-yl)cyclobutyl]-1,2-dihydrospiro[indole-3,4′-piperidin]-6-yl)-3-(propan-2-yl)-3H-imidazo[4,5-c]pyridin-4-yl]amino}-N-(propan-2-yl)benzamide] | < 45% |
| Cc1cc(F)c(Nc2nc(-c3ccc4c(c3)N([C@H]3C[C@@H](N5CCCCC5)C3)C(=O)C43CCN(C(=O)c4ccc(N5CCN(c6cccc7c6C(=O)N(C6CCC(=O)NC6=O)C7=O)CC5)nc4)CC3)cc3ncn(C(C)C)c23)cc1C(=O)NC(C)C (stereo partly drawn) [Example 83, 5-((6-(1′-(6-(4-(2-(2,6-dioxopiperidin-3-yl)-1,3-dioxoisoindolin-4-yl)piperazin-1-yl)nicotinoyl)-2-oxo-1-((1s,3)-3-(piperidin-1-yl)cyclobutyl)spiro[indoline-3,4′-piperidin]-6-yl)-3-isopropyl-3H-imidazo[4,5-c]pyridin-4-yl)amino)-4-fluoro-N-isopropyl-2-methylbenzamide] | < 45% |
| Cc1cc(F)c(Nc2nc(-c3ccc4c(c3)N([C@H]3C[C@@H](N5CCCCC5)C3)C(=O)C43CCN(C(=O)CCC4CCCN(CC(=O)NC(C(=O)N5C[C@H](O)C[C@H]5C(=O)N[C@@H](C)c5ccc(-c6scnc6C)cc5)C(C)(C)C)C4)CC3)cc3ncn(C(C)C)c23)cc1C(=O)NC(C)C (stereo partly drawn) [Example 48, (2S,4R)-1-((2S)-2-(2-(3-(3-(6-(4-((2-fluoro-5-(isopropylcarbamoyl)-4-methylphenyl)amino)-3-isopropyl-3H-imidazo[4,5-c]pyridin-6-yl)-2-oxo-1-((1s,3s)-3-(piperidin-1-yl)cyclobutyl)spiro[indoline-3,4′-piperidin]-1′-yl)-3-oxopropyl)piperidin-1-yl)acetamido)-3,3-dimethylbutanoyl)-4-hydroxy-N—((S)-1-(4-(4-methylthiazol-5-yl)phenyl)ethyl)pyrrolidine-2-carboxamide] | 45 to 65% |
